Measurements taken from patent publication US9611284B2, “Prostaglandin-bisphosphonate conjugate compounds, methods of making same, and uses thereof” (Simon Fraser University, priority 2010, dated 2017).

How the values were obtained:
[1] = Chemical stability of conjugate 8 in 0.1 N NaOH; assay type: physicochemical; settings: room temperature, 24 hours
[2] = Uptake and release of radiolabelled conjugate 8, tritium levels in long bones; assay type: in vivo, female Sprauge-Dawley rats; settings: rat, 5 mg/kg intravenous
Protocol: Uptake and Release of Conjugate 8: A solution was prepared of carbamate conjugate 8 (specific activity=15.4 mCi/mmol) in PBS. The conjugate was administered intravenously to female Sprauge-Dawley rats at 5 mg/kg. Triplicate sets of rats were euthanized at 1, 7, 14 and 28 days and tritium levels in bone were measured by incineration of the long bones in a biological oxidizer. After an initial 1 day uptake of 9.4%, 5.6% of the initial dose remained after 14 days.

hydrolysis of the carbamate coupling [1]: not hydrolyzed
hydrolysis of the ethyl ester [1]: essentially quantitatively
% of Initial 3H Dose Remaining ([2]; 1 day): 9.4%
% of Initial 3H Dose Remaining ([2]; 7 days): 8.0%
% of Initial 3H Dose Remaining ([2]; 14 days, 5 mg/kg): 6.2%
% of Initial 3H Dose Remaining ([2]; 28 days): 5.6%
SMILES: CCOC(=O)CCCCCCN1C(=O)CC[C@@H]1/C=C/[C@@H](OC(=O)NCCCC(O)(P(=O)(O)O)P(=O)(O)O)C(F)(F)c1ccccc1 [Conjugate 8]
